{"source": "ChEMBL document CHEMBL5370554", "about": "“Discovery of a first-in-class Aurora A covalent inhibitor for the treatment of triple negative breast cancer” (Eur J Med Chem, 2023)", "key": {"Aurora kinase A [1]": {"target": "T1, Aurora kinase A (Homo sapiens, UniProt O14965)", "T1 sequence (O14965 whole entry)": "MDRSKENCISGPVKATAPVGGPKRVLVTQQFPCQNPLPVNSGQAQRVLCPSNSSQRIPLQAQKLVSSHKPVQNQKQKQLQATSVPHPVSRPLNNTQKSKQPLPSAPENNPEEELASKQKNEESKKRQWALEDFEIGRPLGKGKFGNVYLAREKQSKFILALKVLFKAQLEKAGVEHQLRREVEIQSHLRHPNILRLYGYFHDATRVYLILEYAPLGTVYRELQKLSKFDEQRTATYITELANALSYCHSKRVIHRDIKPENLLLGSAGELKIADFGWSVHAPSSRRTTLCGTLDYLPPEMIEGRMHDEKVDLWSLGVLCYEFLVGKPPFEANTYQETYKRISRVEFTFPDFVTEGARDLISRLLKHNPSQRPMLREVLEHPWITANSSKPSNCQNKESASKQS", "experiment": "Inhibition of recombinant human Aurora A (1 to 403 residues) expressed in Escherichia coli using STK-substrate 2-biotin as substrate incubated for 15 mins in presence of 0.48 uM ATP by HTRF assay"}, "MDA-MB-231 [2]": {"tested_on": "MDA-MB-231", "experiment": "Induction of apoptosis in human MDA-MB-231 cells assessed as early apoptotic cells at 1.25 uM incubated for 24 hrs by Annexin V-FITC staining based flow cytometry (Rvb= 3.3%)", "format": "functional"}, "[3]": {"experiment": "Metabolic stability in Sprague-Dawley rat liver microsomes assessed as elimination rate constant at 1.75 uM incubated upto 60 mins in presence of NADPH by LC-MS analysis", "format": "ADME, Microsome"}, "MDA-MB-231 [4]": {"tested_on": "MDA-MB-231", "experiment": "Induction of apoptosis in human MDA-MB-231 cells assessed as late apoptotic cells at 2.5 uM incubated for 24 hrs by Annexin V-FITC staining based flow cytometry (Rvb= 6.90%)", "format": "functional"}, "Aurora kinase A [5]": {"target": "T1, Aurora kinase A", "experiment": "Inhibition of recombinant human Aurora A (1 to 403 residues) expressed in Escherichia coli using STK-substrate 2-biotin as substrate incubated for 60 mins in presence of 2.4uM ATP by HTRF assay"}, "MDA-MB-231 [6]": {"tested_on": "MDA-MB-231", "experiment": "Induction of cell cycle arrest in human MDA-MB-231 cells assessed as accumulation at G2/M phase at 5 uM incubated for 24 hrs by PI staining based flow cytometry (Rvb=14.0%)", "format": "functional"}, "[7]": {"target": "T2, Aurora kinase A (Homo sapiens) (UniProt O14965)", "T2 sequence (whole entry)": "T1 sequence (O14965 whole entry)", "experiment": "Irreversible inhibition of recombinant human Aurora A (1 to 403 residues) expressed in Escherichia coli assessed as ratio of Kinact/Ki using STK-substrate 2-biotin as substrate at 0.625 to 40 uM incubated upto 7000 sec in presence of ATP by HTRF assay", "conditions": "dose 0.625-40 µM"}, "MDA-MB-231 [8]": {"tested_on": "MDA-MB-231", "experiment": "Induction of apoptosis in human MDA-MB-231 cells assessed as late apoptotic cells at 5 uM incubated for 24 hrs by Annexin V-FITC staining based flow cytometry (Rvb= 6.90%)", "format": "functional"}, "SJSA-1": {"tested_on": "SJSA-1", "experiment": "Antiproliferative activity against human SJSA-1 cells assessed as inhibition of cell proliferation incubated for 48 hrs by CCK-8 assay", "format": "functional, cell-based", "conditions": "SJSA-1, 48 h"}, "MDA-MB-231 [9]": {"tested_on": "MDA-MB-231", "experiment": "Antiproliferative activity against human MDA-MB-231 cells assessed as inhibition of cell proliferation incubated for 48 hrs by CCK-8 assay", "format": "functional, cell-based", "conditions": "MDA-MB-231, 48 h"}, "[10]": {"experiment": "Metabolic stability in Sprague-Dawley rat liver microsomes assessed as intrinsic clearance at 1.75 uM incubated upto 60 mins in presence of NADPH by LC-MS analysis", "format": "ADME, Microsome", "conditions": "read-out: CLH"}, "[11]": {"experiment": "Toxicity in BALB/c nude mouse xenografted with human MDA-MB-231 cells assessed as parenchymal injury in kidney at 15 mg/kg,ip every 2days for 20 days by Hematoxylin and Eosin staining based microscopy", "format": "organism-based", "conditions": "in vivo, 480 h, time 20 day"}, "[12]": {"experiment": "Toxicity in BALB/c nude mouse xenografted with human MDA-MB-231 cells assessed as inflammatory cell infiltration in spleen at 15 mg/kg,ip every 2days for 20 days by Hematoxylin and Eosin staining based microscopy", "format": "organism-based", "conditions": "in vivo, 480 h, time 20 day"}, "Aurora kinase A [13]": {"target": "T1, Aurora kinase A", "experiment": "Inhibition of recombinant human Aurora A (1 to 403 residues) expressed in Escherichia coli using FAM-labeled peptide as substrate preincubated for 10 mins followed by substrate addition and measured after 20 mins in presence of ATP by HTRF assay"}, "[14]": {"experiment": "Toxicity in BALB/c nude mouse xenografted with human MDA-MB-231 cells assessed as parenchymal injury in lung at 15 mg/kg,ip every 2days for 20 days by Hematoxylin and Eosin staining based microscopy", "format": "organism-based", "conditions": "in vivo, 480 h, time 20 day"}, "MDA-MB-231 [15]": {"tested_on": "MDA-MB-231", "experiment": "Induction of apoptosis in human MDA-MB-231 cells assessed as live cells at 1.25 uM incubated for 24 hrs by Annexin V-FITC staining based flow cytometry (Rvb= 88.1%)", "format": "functional"}, "MDA-MB-231 [16]": {"tested_on": "MDA-MB-231", "experiment": "Induction of apoptosis in human MDA-MB-231 cells assessed as live cells at 5 uM incubated for 24 hrs by Annexin V-FITC staining based flow cytometry (Rvb= 88.1%)", "format": "functional"}, "[17]": {"target": "T2, Aurora kinase A (Homo sapiens)", "experiment": "Inhibition of Aurora A in human MDA-MB-231 cells assessed as decrease in Aurora A phosphorylation at Thr288 residue at 0.2 to 0.6 uM incubated for 1 hrs by Western blot analysis", "format": "cell-based", "conditions": "dose 0.2-0.6 µM"}, "[18]": {"experiment": "Cytotoxicity against human L02 cells assessed as inhibition of cell proliferation incubated for 48 hrs by CCK-8 assay", "format": "toxicity, cell-based"}, "Aurora kinase A [19]": {"target": "T1, Aurora kinase A", "experiment": "Inhibition of recombinant human Aurora A (1 to 403 residues) expressed in Escherichia coli using STK-substrate 2-biotin as substrate incubated for 15 mins in presence of 7.2uM ATP by HTRF assay"}, "Aurora kinase A [20]": {"target": "T1, Aurora kinase A", "experiment": "Inhibition of recombinant human Aurora A (1 to 403 residues) expressed in Escherichia coli using STK-substrate 2-biotin as substrate incubated for 40 mins in presence of 7.2uM ATP by HTRF assay"}, "[21]": {"experiment": "Toxicity in BALB/c nude mouse xenografted with human MDA-MB-231 cells assessed as inflammatory cell infiltration in kidney at 15 mg/kg,ip every 2days for 20 days by Hematoxylin and Eosin staining based microscopy", "format": "organism-based", "conditions": "in vivo, 480 h, time 20 day"}, "Aurora kinase A [22]": {"target": "T1, Aurora kinase A", "experiment": "Inhibition of recombinant human Aurora A (1 to 403 residues) expressed in Escherichia coli using STK-substrate 2-biotin as substrate incubated for 60 mins in presence of 24 uM ATP by HTRF assay"}, "MDA-MB-231 [23]": {"tested_on": "MDA-MB-231", "experiment": "Inhibition of cell migration in human MDA-MB-231 cells at 1.25 uM incubated for 18 hrs by Scratch assay (Rvb= 37.2%)", "format": "functional"}, "[24]": {"experiment": "Toxicity in BALB/c nude mouse xenografted with human MDA-MB-231 cells assessed as parenchymal injury in liver at 15 mg/kg,ip every 2days for 20 days by Hematoxylin and Eosin staining based microscopy", "format": "organism-based", "conditions": "in vivo, 480 h, time 20 day"}, "MDA-MB-231 [25]": {"tested_on": "MDA-MB-231", "experiment": "Induction of cell cycle arrest in human MDA-MB-231 cells assessed as accumulation at G2/M phase at 1.25 to 5 uM incubated for 24 hrs by PI staining based flow cytometry", "format": "functional", "conditions": "dose 1.25-5 µM"}, "Aurora kinase A [26]": {"target": "T1, Aurora kinase A", "experiment": "Inhibition of recombinant human Aurora A (1 to 403 residues) expressed in Escherichia coli using STK-substrate 2-biotin as substrate incubated for 40 mins in presence of 24 uM ATP by HTRF assay"}, "MDA-MB-231 [27]": {"tested_on": "MDA-MB-231", "experiment": "Induction of apoptosis in human MDA-MB-231 cells assessed as necrotic cells at 5 uM incubated for 24 hrs by Annexin V-FITC staining based flow cytometry (Rvb= 1.67%)", "format": "functional"}}}
{"smiles": "C=CC(=O)Nc1ccc(-c2nc(Nc3cc(C)[nH]n3)c3ccc(N4CCN(C)CC4)cc3n2)cc1", "values": [{"measurement": "IC50", "setting": "Aurora kinase A [1]", "result": 1.49, "unit": "nM"}, {"measurement": "Activity", "setting": "MDA-MB-231 [2]", "result": 10.5, "unit": "%"}, {"measurement": "k el at 1 h, 1.75 µM", "setting": "[3]", "result": 0.000467, "unit": "s⁻¹"}, {"measurement": "Activity", "setting": "MDA-MB-231 [4]", "result": 21, "unit": "%"}, {"measurement": "IC50", "setting": "Aurora kinase A [5]", "result": 3.91, "unit": "nM"}, {"measurement": "Activity", "setting": "MDA-MB-231 [6]", "result": 50.8, "unit": "%"}, {"measurement": "Ratio", "setting": "[7]", "result": "6.02 10^3/M/s"}, {"measurement": "Activity", "setting": "MDA-MB-231 [8]", "result": 62.6, "unit": "%"}, {"measurement": "IC50", "setting": "SJSA-1", "result": 4270, "unit": "nM"}, {"measurement": "IC50", "setting": "MDA-MB-231 [9]", "result": 1540, "unit": "nM"}, {"measurement": "microsomal CLint at 1.75 µM", "setting": "[10]", "result": 71.3, "unit": "µL/min/mg"}, {"measurement": "Activity", "setting": "[11]", "result": "Non-Toxic"}, {"measurement": "Activity", "setting": "[12]", "result": "Non-Toxic"}, {"measurement": "IC50", "setting": "Aurora kinase A [13]", "result": 1.7, "unit": "nM"}, {"measurement": "Activity", "setting": "[14]", "result": "Non-Toxic"}, {"measurement": "Activity", "setting": "MDA-MB-231 [15]", "result": 69.5, "unit": "%"}, {"measurement": "Activity", "setting": "MDA-MB-231 [16]", "result": 8.59, "unit": "%"}, {"measurement": "inhibition", "setting": "[17]", "result": "Dose-Dependent Effect"}, {"measurement": "IC50 at 48 h", "setting": "[18]", "result": 23400, "unit": "nM"}, {"measurement": "IC50", "setting": "Aurora kinase A [19]", "result": 4.36, "unit": "nM"}, {"measurement": "IC50", "setting": "Aurora kinase A [20]", "result": 5.19, "unit": "nM"}, {"measurement": "Activity", "setting": "[21]", "result": "Non-Toxic"}, {"measurement": "IC50", "setting": "Aurora kinase A [22]", "result": 23.3, "unit": "nM"}, {"measurement": "inhibition at 1.25 µM", "setting": "MDA-MB-231 [23]", "result": 3.6, "unit": "%"}, {"measurement": "Activity", "setting": "[24]", "result": "Non-Toxic"}, {"measurement": "Activity", "setting": "MDA-MB-231 [25]", "result": "Dose-Dependent Effect"}, {"measurement": "IC50", "setting": "Aurora kinase A [26]", "result": 8.34, "unit": "nM"}, {"measurement": "Activity", "setting": "MDA-MB-231 [27]", "result": 0.27, "unit": "%"}]}
